Reference: patent US20200031920A1, “Combination Therapy for Treating Cancer” (The George Washington University, priority 2017, published 2020)

Test system: SKOV3 CR cells
Test: combinational high throughput screen with cisplatin
Assay type: cell-based
Details: in combination with DMSO, 1 μM cisplatin or 20 μM cisplatin
From the text: A combinational HTS using multiple compound libraries including NPC (NIH Pharmaceutical Collection), MIPE (Mechanism interrogation plate), and LOPAC (The Library of Pharmacologically Active Compounds) was used to identify compounds that can overcome cisplatin resistance of SKOV3 CR cells (FIG. 5). The library of pharmacologically active compounds (LOPAC®) of 1280 compounds (1) was purchased from Sigma. The NCGC Pharmaceutical Collection (NPC) of 2816 compounds and mechanism interrogation plate (MIPE) library of 1920 compounds were previously described. Bromberg, J Clin Invest 109: 1139-1142 (2002) and Buchert et al., Oncogene 35: 939-951 (2016). Compounds from all libraries were obtained as powder and dissolved in dimethyl sulfoxide (DMSO) […]. Combinational HTS was performed as previously described. Szasz et al., Oncotarget 7: 49322-49333 (2016). A total of 6,016 compounds were screened. […] In the second screen, these 112 compounds were selected for a dose-response confirmation screen in combination with DMSO, 1 μM cisplatin or 20 μM cisplatin (FIG. 5).

Cc1cc(Nc2cc(CN3CCOCC3)c3nc(C)c(Cc4ccc(Cl)cc4F)n3n2)n[nH]1 [LY2784544]
sensitization to cisplatin in second (dose-response confirmation) screen: significantly sensitize SKOV3 CR cells to cisplatin
